Source: BindingDB's records for PubMed 17827 (1977)
Values joined by “and” are separate entries in the source; they are usually repeats but may differ in a detail not shown here. Equal entries are not always repeated.

Molecular target: T1, Alpha-1A adrenergic receptor (Rattus norvegicus, UniProt P43140)
T1 sequence (P43140 whole entry): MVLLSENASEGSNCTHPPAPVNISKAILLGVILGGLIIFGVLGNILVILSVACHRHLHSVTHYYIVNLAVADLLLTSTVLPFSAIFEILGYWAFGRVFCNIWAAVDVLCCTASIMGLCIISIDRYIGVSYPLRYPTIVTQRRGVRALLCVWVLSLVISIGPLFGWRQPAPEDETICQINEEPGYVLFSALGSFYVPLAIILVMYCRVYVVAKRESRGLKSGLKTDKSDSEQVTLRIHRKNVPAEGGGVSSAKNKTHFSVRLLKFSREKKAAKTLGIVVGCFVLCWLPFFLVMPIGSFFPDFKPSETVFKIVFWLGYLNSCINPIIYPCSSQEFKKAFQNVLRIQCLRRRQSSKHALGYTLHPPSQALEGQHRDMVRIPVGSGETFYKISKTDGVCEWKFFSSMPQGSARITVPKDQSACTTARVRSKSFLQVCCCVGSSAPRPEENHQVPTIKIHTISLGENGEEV

SMILES | Ki
NCCc1ccc(O)cc1 | 5.9 µM and 23 µM
CC(C)NC[C@@H](O)c1ccc(O)c(O)c1 | 38 µM and > 70 µM
CN(C)CCC=C1c2ccccc2CCc2ccccc21 | 0.53 µM
CC[C@@H](CO)NC(=O)[C@@H]1C=C2c3cccc4c3c(cn4C)C[C@H]2N(C)C1 | 4.7 µM and 1.9 µM
CN1C2CCC1CC(OC(c1ccccc1)c1ccccc1)C2 (stereo unspecified) | 0.42 µM and 0.047 µM
NCC(O)c1ccc(O)cc1 (racemic) [Octopamine,(+/-)] | 1.56 µM and 11 µM
CNC(=S)NCCCCc1cnc[nH]1 [1-[4-(1H-imidazol-5-yl)butyl]-3-methylthiourea] | 1.03 µM and 1.9 µM
CN1CC(C(=O)N[C@]2(C)O[C@@]3(O)C4CCCN4C(=O)[C@H](Cc4ccccc4)N3C2=O)CC2c3cccc4[nH]cc(c34)CC21 (stereo partly drawn) [7-Methyl-4,6,6a,7,8,9,10,10a-octahydro-indolo[4,3-fg]quinoline-9-carboxylic acid ((2R,5S,10bS)-5-benzyl-10b-hydroxy-2-methyl-3,6-dioxo-octahydro-oxazolo[3,2-a]pyrrolo[2,1-c]pyrazin-2-yl)-amide] | 0.0024 µM and 0.0035 µM
CN1C[C@H](C(=O)N[C@]2(C)O[C@@]3(O)[C@@H]4CCCN4C(=O)[C@H](Cc4ccccc4)N3C2=O)C=C2c3cccc4[nH]cc(c34)C[C@H]21 [12'-hydroxy-2'-methyl-5'alpha-(phenylmethyl)ergotaman-3',6',18-trione] | 0.012 µM
N[C@H]1C[C@@H]1c1ccccc1 [(1S,2R)-(+)-2-phenylcyclopropylamine] | 0.94 µM and 7 µM
CCN(CC)C(=O)[C@@H]1C=C2c3cccc4[nH]cc(c34)C[C@H]2N(C)C1 [(4R,7R)-N,N-diethyl-6-methyl-6,11-diazatetracyclo[7.6.1.0^{2,7}.0^{12,16}]hexadeca-1(16),2,9,12,14-pentaene-4-carboxamide] | 0.22 µM
CC(C)C[C@H]1C(=O)N2CCCC2[C@]2(O)O[C@](NC(=O)[C@@H]3C=C4c5cccc6[nH]cc(c56)CC4N(C)C3)(C(C)C)C(=O)N12 (stereo partly drawn) [ALPHA-ERGOCRYPTINE] | 0.008 µM and 0.009 µM
CN1CCc2cccc3c2[C@H]1Cc1ccc(O)c(O)c1-3 [APOKYN] | 0.95 µM and 2.3 µM
CC(C)C[C@H]1C(=O)N2CCC[C@H]2[C@]2(O)O[C@](NC(=O)[C@@H]3C=C4c5cccc6[nH]c(Br)c(c56)C[C@H]4N(C)C3)(C(C)C)C(=O)N12 [Bromocriptine+ (GTP+)] | 0.009 µM and 0.016 µM
COc1cc2c3cc1Oc1cc(ccc1O)C[C@H]1c4c(cc(OC)c(O)c4Oc4ccc(cc4)C[C@@H]3N(C)CC2)CC[N+]1(C)C [CAS_57-94-3] | > 60 µM and 6.9 µM
CC(CO)NC(=O)C1C=C2c3cccc4[nH]cc(c34)CC2N(C)C1 (stereo unspecified) [CAS_60-79-7] | 1.4 µM and 1.8 µM

SMILES | Ki
C[C@@H](N)Cc1ccc(O)cc1 [CAS_103-86-6] | 5 µM and 39 µM
c1ccc2c(c1)OCC(CN1CCN(CC3COc4ccccc4O3)CC1)O2 (stereo unspecified) [CAS_7762-32-5] | 0.1 µM and 0.019 µM
CC(C)C1(NC(=O)C2CC3c4cccc5[nH]cc(c45)CC3N(C)C2)OC2(O)C3CCCN3C(=O)C(Cc3ccccc3)N2C1=O (stereo unspecified) [Dihydroergocristine] | 0.01 µM and 0.0024 µM
CC(C)[C@H]1C(=O)N2CCC[C@H]2[C@]2(O)O[C@](NC(=O)[C@@H]3C=C4c5cccc6[nH]cc(c56)C[C@H]4N(C)C3)(C(C)C)C(=O)N12 [ERGOCORNINE] | 0.011 µM and 0.01 µM
C#CCN(C)Cc1ccccc1 [N-benzyl-N-methylprop-2-yn-1-amine] | 14 µM and > 70 µM
NNc1nncc2ccccc12 [NSC_3637] | 7.7 µM and 52 µM
N=c1nc(N2CCCCC2)cc(N)n1O [NSC_4201] | > 60 µM and 29 µM
OC(CCN1CCCCC1)(c1ccccc1)C1CCCCC1 (stereo unspecified) [NSC_5572] | 5 µM and 18 µM
ClCCN(Cc1ccccc1)Cc1ccccc1 [NSC_5820] | 0.27 µM and 0.083 µM
CC(C)C[C@H]1C(=O)N2CCC[C@H]2[C@]2(O)O[C@](NC(=O)[C@@H]3C[C@@H]4c5cccc6[nH]cc(c56)C[C@H]4N(C)C3)(C(C)C)C(=O)N12 [NSC_159729] | 0.007 µM and 0.0024 µM
CC(C)C1C(=O)N2CCCC2C2(O)OC(NC(=O)C3CC4c5cccc6[nH]cc(c56)CC4N(C)C3)(C(C)C)C(=O)N12 (stereo unspecified) [NSC_168871] | 0.009 µM and 0.0037 µM
CC(C)[C@@]1(NC(=O)[C@@H]2C=C3c4cccc5[nH]cc(c45)C[C@H]3N(C)C2)O[C@@]2(O)[C@@H]3CCCN3C(=O)[C@H](Cc3ccccc3)N2C1=O [SMR000058447] | 0.018 µM and 0.0063 µM
CCCCCC(C)N (stereo unspecified) [Tuaminoheptane] | 7.1 µM and 68 µM
NCCc1c[nH]c2ccc(O)cc12 [[3H]-5-HT] | 18 µM and 23 µM
C[C@H](N)Cc1ccccc1 [beta-aminopropylbenzene] | 1.6 µM and 10 µM and 2.2 µM and 12 µM
